Test results reported in patent US20250066735A1, “PREPARATION METHOD OF MESENCHYMAL STEM CELL (MSC) AND APPLICATION THEREOF IN KNEE PRODUCT” (GUANGDONG CELL BIOTECHNOLOGY CO. LTD, priority 2024, published 2025).

Test system: human bone marrow-derived MSCs
Experiment: Trypan blue survival rate of MSCs pre-cultivated with additive medium, after H2O2 challenge
Assay type: cell-based
Conditions: for Cell survival rate-improving effect (in words): compared among additive compositions, H2O2 challenge; for Cell survival rate: third-generation MSCs cultivated with medium additive, then low-sugar DMEM with 100 mM H2O2 for 1 h, Trypan blue
Description: (1) Isolation of bone marrow-derived MSCs from a bone marrow: 20 mL to 40 mL of a human bone marrow was extracted and added to a sterile glass bottle with 3,000 U heparin, and the human bone marrow and the heparin were fully mixed for anticoagulation. Normal saline was added at the same amount as the human bone marrow to the sterile glass bottle, and mixing was conducted thoroughly to obtain diluted human bone marrow. The diluted human bone marrow was added slowly to a Ficoll liquid level with 1 part by volume of a lymphocyte separation solution (Ficoll separation solution) per 2 parts by volume of the diluted human bone marrow to obtain a mixed system. The mixed system was centrifuged at 2,000 r/min and 20° C. in a horizontal centrifuge for 25 min, and bone marrow-derived MSCs were collected from an interface, washed with normal saline 2 to 3 times, suspended with an appropriate amount of a culture medium, and counted.
(2) Primary cultivation of the bone marrow-derived MSCs: The bone marrow-derived MSCs obtained in the step (1) were inoculated at a density of 0.3×10^6/mL in a basal medium, and the primary cultivation was conducted. The basal medium is Dulbecco's Modified Eagle Medium (DMEM, GIBCO company, America). During the primary cultivation, the medium was changed every 2 d to remove non-adherent cells and continuously purify the human bone marrow-derived MSCs. When a cell density reached 80%, the sub-cultivation was conducted. For an experimental group, an additive composition of NOG and quercetin was added to the basal medium to prepare an experimental medium.
The sub-cultivation was conducted until third-generation human bone marrow-derived MSCs were obtained. The third-generation human bone marrow-derived MSCs were further cultivated with the experimental medium for cell transplantation.
(3) A survival rate of the human bone marrow-derived MSCs was detected with Trypan blue. The human bone marrow-derived MSCs obtained in the step (2) (cells cultivated without NOG and quercetin were adopted as a control group) were transferred to a low-sugar DMEM including 100 mM hydrogen peroxide (H2O2), cultivated for 1 h, stained with Trypan blue, and observed under a microscope to count a cell survival rate.

SMILES	Cell survival rate-improving effect (in words)	Cell survival rate
O=C(O)CNC(=O)C(=O)O [compound 2, N-oxalylglycine]	inferior cell survival rate-improving effect	52.3 ± 0.8%
O=c1c(O)c(-c2ccc(O)c(O)c2)oc2cc(O)cc(O)c12 [compound 1, quercetin]	inferior cell survival rate-improving effect	50.2 ± 0.7%
